Results taken from patent US8609730B2, “Rel inhibitors and methods of use thereof” (The Trustees of the University of Pennsylvania, priority 2008, dated 2013).
Entries after “also recorded” stand apart in the source; their conditions may differ.

Experiments:
[1] = test system: C57BL/6 mice immunized to induce EAE; assay: EAE induced with MOG38-50 peptide, prevention and treatment; assay type: in vivo; conditions: for treating ongoing EAE (after onset): i.p. daily after onset, 100 ug/mouse/injection
spleen cells of B6 mice = assay: Cytokine production by spleen cells treated with anti-CD3 antibody (ELISA); assay type: cell-based
Description: FIG. 1. FIG. 1A depicts a graph showing the IL-2 inhibitory effect of R13D (compound III), R13096 (compound CXX), and R13015 (compound VI). FIG. 1B depicts a graph showing the IFN-gamma inhibitory effect of R13D (compound III), R13096 (compound CXX), and R13015 (compound VI).
FIG. 3. Depicts a graph showing Splenocytes that were cultured under various conditions as indicated on the X-axis. Twenty-four hours later, cytokines in the supernatant were determined by ELISA (R13D is compound III, R31C. is compound IV, R32D is compound VII).
To determine whether these inhibitors are effective in suppressing cytokine production by inflammatory cells, spleen cells of B6 mice were treated with anti-CD3 antibody (to activate the inflammatory cells) with or without different concentrations of the compounds. […] As further shown in FIG. 1 IL-2 and IFN-gamma were inhibited by […], and compound VI at concentrations ranging from 5-20 μM.

[2] = test system: splenocytes or purified CD4+ splenic T cells of C57BL/6 mice; assay: Cell-based assay for testing c-Rel blockers: cytokine expression with anti-CD3 and anti-CD28; set-up: IL-4 in culture: dose or concentration left out as unconfirmed; conditions: for IL-2 production by T cells (IL-2 release assay, secondary screening): hits of virtual screening
Description: (§1) Splenocytes of C57BL/6 mice (n=4) were cultured with or without plate-bound anti-CD3 (1 ug/ml) and soluble anti-CD28 (2 ug/ml), in the presence of various concentrations of R96 as indicated. R96 was dissolved in PBS, and the amount of the PBS added to each culture was identical ([…]). Twenty-four hours later, cytokines in the supernatant were determined by ELISA (A-C). The percentages of dead cells in the culture were determined by flow cytometry following staining cells with annexin-V and propidium iodide (PI)(D).
To design drugs that could disable human c-Rel binding to DNA (therefore blocking the biological activity of c-Rel), chicken c-Rel 3-D model was first humanized by replacing chicken residues with their human counterparts. The model was then minimized using the Insight II software (Accelrys, Inc). The minimized model was used to discover small molecule inhibitors that can interfere with the residues in loops L1 and L2. A small druggable cavity was identified using programs available in Insight II. This structure was designated as the L1 cavity. The L1 cavity is formed by loops L1, L2 and a helix. Residues Arg 21, Cys 26, Glu 27, Lys 110 and Lys 111 form the mouth of the L1 cavity (FIG. 2). A virtual screening approach was used to identify small molecule inhibitors that block DNA binding to the L1 cavity by perturbing these key contact residues as we previously described. From ˜50,000 drug-like molecules of available chemical libraries, about 100 hits were identified. […] These compounds fall into two structural classes, the phenylcarbamates (FIG. 2C) and sulfanyl-methaniminium-based compounds, represented by R13:
To determine whether the c-Rel blockers identified above are effective in regulating inflammatory cell function, splenocytes or purified CD4+ splenic T cells of C57BU6 mice were treated with anti-CD3 and anti-CD28 in the presence of increasing concentrations of the compounds. Cytokine expression was determined by ELISA, flow cytometry or real-time PCR, whereas CD4 expression and cell survival were determined by flow cytometry alone. […]

[3] = test system: splenocytes or CD4+ T cells of C57BL/6 mice; assay: Cell survival / dead cells by flow cytometry (annexin-V and propidium iodide); assay type: cell-based; set-up: survival of CD4+ T cells or total splenocytes: dose or concentration left out as unconfirmed
Description: as §1
To determine whether the c-Rel blockers identified above are effective in regulating inflammatory cell function, splenocytes or purified CD4+ splenic T cells of C57BU6 mice were treated with anti-CD3 and anti-CD28 in the presence of increasing concentrations of the compounds. Cytokine expression was determined by ELISA, flow cytometry or real-time PCR, whereas CD4 expression and cell survival were determined by flow cytometry alone. […] The IC50 of R96 for IL-2 inhibition is […]. […] Because Th1 cytokine IFN-g inhibits the activity of Th2 cells, the increased IL-4 in cultures containing […] R96 could be due to the reduced IFN-g in the culture. […] In fact, c-Rel-deficient mice have reduced but not increased IgG1, IgG3 and IgE production.

[4] = anti-CD3 treated spleen cells, 24 h, FIG. 3
[5] = FIG. 1, concentrations ranging from 5-20 μM

Compound | treating ongoing EAE (after onset) [1] | preventing EAE (prophylaxis) ([1]; i.p. daily from day 1 to day 13, 100 ug/mouse/injection (100 mg)) | Interleukin (IL)-2 production (spleen cells of B6 mice; [4]) | interferon-gamma production (spleen cells of B6 mice; [4]) | IL-2 production by T cells (IL-2 release assay, secondary screening) [2] | mean disease score ([1]; seven days into the treatment after onset, FIG. 5C, control 1.83±0.16, p<0.001) | survival of CD4+ T cells or total splenocytes ([3]; highest concentration tested) | percentage of annexin-V+ and PI+ cells (dead cells) ([3]; various concentrations, 24 h) | IL-4 in culture ([2]; cultures containing R96) | IFN-gamma inhibition (spleen cells of B6 mice; [5]) | IL-2 inhibition (spleen cells of B6 mice; [5])
O=C(Nc1ccccc1)OCc1nccn1Cc1ccc(Cl)cc1 [R13] | statistically significant; also recorded: significantly ameliorated | statistically significant | significantly inhibited | significantly inhibited | significantly inhibited |  |  |  |  |  | 
Br.N#Cc1ccc(CSC(=N)Nc2ccccc2)cc1 [R96] | statistically significant; also recorded: significantly ameliorated |  |  |  | most potent | 0.75±0.43 | does not significantly affect | No significant differences | increased |  | 
CC(C)(C)c1cc(NC(=O)/C(C#N)=C/c2cccc(Cl)c2Cl)c(C(N)=O)s1 [compound V] |  |  |  |  |  |  |  |  |  | inhibited | inhibited
